The source of these data is US10308617B2, “Triazole benzamide derivatives and the compositions and methods of treatment regarding the same” (An2H Discovery Limited, priority 2016, dated 2019).

Where two headings read alike, the source gives them in different places.

Data set [1] is described as follows: Microsomal Stability Assay, human liver microsomes. Particulars: pH 7.4, 1 μM compound, 1.0 mg/mL microsome, NADPH, read-out: HLM t1/2. Type of data set: in vitro ADME. On the procedure: Compounds were also tested for metabolic stability in both rat liver microsomes (RLM) and human liver microsomes (HLM) and their half-life calculated (See Table 5). The assay was performed as follows. The total volume for each incubation was 250 μL. A 100 μM DMSO solution of compound (diluted from 10 mM stock solution) was spiked into 50 mM KH2PO4 (pH 7.4) buffer containing liver microsome at a concentration of 1.0 mg/mL. The reaction was initiated by the addition of 50 μL of 1 mM NADPH. The final concentration of each compound was 1 μM (1% DMSO). The positive controls, phenacetin for CYP1A2, diclofenac for CYP2C9, omeprazole for CYP2C19, dextromethorphan for CYP2D6 and midazolam for CYP3A4 were added to a separate tube with the final substrate concentrations of 1 μM (1% DMSO) for evaluating the enzyme activities in the liver microsomes. At 0, 15, 30 and 60 min, an aliquot of 15 μL reaction mixtures were removed and 200 μL of methanol (with internal standard of 25 ng/mL propranolol) was added to quench the reaction. The resulting mixture was centrifuged and supernatant was used for LC-MS/MS analysis.
The signals for each compound, or the metabolites for the probe substrates and the internal standard were integrated and the peak area ratios to internal standard were generated. Percent parent remaining at a specified timepoint was calculated based on the peak area ratios at time 0 (as 100%) for in vitro metabolic stability studies in liver microsome and hepatocyte. The observed rate constant (kobs) for the metabolism of substrates was calculated by plotting the natural log of percentage substrate remaining versus time of incubation with the slope being kobs. The half-life (T1/2) was calculated according to the following equation: T1/2=0.693/kobs
(Microsomes from liver hold many membrane-bound enzymes, among them those of drug oxidation.)

The nature of data set [2]: Oral Bioavailability (PO) and Pharmacokinetics Assay. Type of data set: in vivo, Sprague-Dawley rats. Conditions: rat; for Cmax: read-out: C0 or Cmax (ng/mL): Cmax; for half-life: read-out: T½ (converted).
Assay in data set [3]: as above
Type of data set: in vivo, Sprague-Dawley rats. Particulars: rat; for AUC(0-t) / clearance / C0 (back-extrapolated initial plasma concentration after IV dose) / Vd: male, Sprague-Dawley, plasma; for C0 (back-extrapolated initial plasma concentration after IV dose): read-out: C0 or Cmax (ng/mL): C0; for Vd: iv, read-out: Vss; for Vd / Vss: 1 mg/kg. On the procedure: The pharmacokinetics and oral bioavailability of various compounds was evaluated following IV or PO administration to fasted male Sprague-Dawley rats (N=3/route/dose). Each compound was administered to fasted male Sprague-Dawley rats as a single dose of 1 mg/kg (IV) or 5 mg/kg (PO). For IV dosing, each compound was formulated in 10% DMA/15% Solutol/75% HPβ-CD (20%) as a 1 mg/mL solution for IV (1 mL/kg) and for PO (5 mL/kg) administrations.
Blood samples (0.250 mL) were collected into EDTA tubes then processed to generate plasma samples. Blood samples were collected at pre-dose, 0.083, 0.25, 0.5, 1, 2, 4, 8 and 24 hours post-dose administration. Plasma concentrations of each compound were determined using LC-MS/MS with a lower limit of quantitation of 1.0 ng/mL. The pharmacokinetic parameters were determined by non-compartmental methods using WinNonlin.
The pharmacokinetic parameters of each compound were determined by non-compartmental analysis (Model 201 for IV administration and Model 200 for PO administration) using WinNonlin Version 6.4 (Pharsight, Mountain View, Calif.). The area under the curve from the time of dosing to the last measurable concentration, AUC(0-t), was calculated by the linear trapezoidal rule. The area under the concentration-time curve extrapolated to infinity, AUC(0-∞), was calculated as follows: AUC(0-∞)=AUC(0-t)+Clast/k
Where Clast is the last measurable concentration and k is the first order rate constant associated with the terminal elimination phase, estimated by linear regression of log concentration versus time. The half-life (T1/2) of the terminal elimination phase was estimated based on the following equation: T1/2=0.693/k
K was determined based on at least three timepoints with R^2≥0.9. Additional parameters were calculated as follows: CL=Dose/AUC(0-∞)
Where CL is the clearance of An2H compound in L/hr/kg, Dose is the administered dose in mg/kg. Mean residence time (MRT) was calculated as follows: MRT=AUMC(0-∞)/AUC(0-∞)
Where area under the first moment curve extrapolated to infinity (AUMC(0-∞)) was calculated as follows: AUMC(0-∞)=AUMClast+tlast*Clast/k+Clast/k^2
The steady state volume of distribution (Vss) was calculated as follows: Vss=CL×MRT.
The oral bioavailability based on AUC(0-t) was calculated as follows: F (%)=AUCPO/AUCIV×DoseIV/DosePO×100. For IV administration, the initial concentration, Co is reported and is an extrapolated value. For PO administration, the maximum concentration, Cmax is report and is an observed value.

Data set [4] deals with subcutaneous HCT-116 (colon cancer) xenograft. The data set is described as follows: In Vivo Cancer Xenograft Assay, HCT-116. Particulars: 5 or 10 mg/kg daily IP, tumor volume to day 26. Also on record: species or system nude mice. On the procedure:
Compound F was evaluated for in vivo therapeutic efficacy in the treatment of subcutaneous HCT-116 (colon cancer) and Calu-6 (lung cancer) xenograft models in nude mice.
Each mouse was inoculated subcutaneously at the flank region with either HCT-116 or Calu-6 tumor cells ([…]) in 0.1 ml of 1×PBS mixed with Matrigel (1:1) for tumor development and xenotransplantation.
Twenty (20) animals with approx […] tumors were selected for HCT-116 follow up experiment and randomly placed into Groups 1, 2, 3, and 4, wherein Group 1 was for mice administered with a vehicle negative control; Group 2 was positive control of Mice treated with Bevacizumab at 5 mg/kg every three days; Group 3 was mice treated with 5 mg/kg of Compound f daily for up to 20 days; and Group 4 was mice treated with 10 mg/kg of Compound F daily for up to 20 days. The vehicle with or without drug was administered to the mouse by intraperitoneal injection. […]
After tumor cells inoculation, the animals were checked daily for morbidity and mortality. […] Death and observed clinical signs were recorded. Tumor volumes were measured every three days in two dimensions using an electronic caliper, and the volume data are expressed in mm^3 using the formula: V=0.5 a×b2 where a and b are the long and short diameters of the tumor, respectively. Tumor volume average was then recorded for each day for groups 1-4 until day 26. […]

Where [5] appears, read: male, Sprague-Dawley, plasma, PO 5 mg/kg.
The mark [6] stands for this setting: male, Sprague-Dawley, plasma, PO 5 mg/kg, read-out: F (%) oral bioavailability.
Setting [7] is: male, Sprague-Dawley, plasma, iv, 1 mg/kg, IV bolus 1 mg/kg.
Setting [8] is: male, Sprague-Dawley, plasma, po, 5 mg/kg, PO 5 mg/kg.
[9] abbreviates: male, Sprague-Dawley, plasma, IP 3 mg/kg.

One may read the Tmax as the time at which the peak concentration occurs. In general, AUC(0-t) refers to exposure summed from dosing to a finite time, without extrapolation to infinity. A higher AUC(0-t) goes with more exposure. As for `O=C(Nc1nc(NC(=O)c2ccccc2)n(-c2ccccc2)n1)c1ccccc1` [Compound A, N,N′-(1-phenyl-1H-1,2,4-triazole-3,5-diyl)dibenzamide], the half-life at 1 μM in data set [1] came out at 2.52 h. The bioavailability in data set [2] (male, Sprague-Dawley, plasma, IV bolus 1 mg/kg, read-out: F (%)) worked out at 100%. In data set [2] (setting [5]), the Tmax is 0.417 h and the Cmax was 249 ng/mL. In data set [2] (setting [6]), the bioavailability came out at 6.85%. Moreover, the half-life in data set [2] (setting [7]) is 0.85 h. Further, the half-life in data set [2] (setting [8]) is 1.6 h. In addition, the “T½” value in data set [2] (PO 5 mg/kg, 5 mg/kg) was determined as 1.62 h. Besides, in data set [3] (IV bolus 1 mg/kg), the AUC(0-t) was found to be 1100 ng·h/mL, the clearance was determined as 15.7 mL/min/kg, the C0 (back-extrapolated initial plasma concentration after IV dose) was 4520 ng/mL and the Vd came to 0.38 L/kg. In data set [3] (IV bolus 1 mg/kg), the “Vss” value came out at 0.381 L/kg. The same molecule came in with an AUC(0-t) in data set [3] (PO 5 mg/kg) of 371 ng·h/mL.
Regarding `O=C(/C=C/c1ccccc1)Nc1nc(NC(=O)c2ccccc2)nn1-c1ccccc1` [Compound C, N-(5-cinnamamido-1-phenyl-1H-1,2,4-triazol-3-yl)benzamide], the half-life at 1 μM in data set [1] was 1.3 h. In addition, in data set [2] (setting [5]), the Tmax was 0.38 h and the Cmax was 50.5 ng/mL. In data set [2] (setting [6]), the bioavailability was found to be 2.4%. Also, the half-life in data set [2] (setting [7]) was 0.71 h. For the same molecule, the half-life in data set [2] (setting [8]) is 2.3 h. The “Oral Bioavilability (PO PK) F” value in data set [2] was “F = 2%”. For the same molecule, in data set [3] (IV bolus 1 mg/kg), the AUC(0-t) was 1030 ng·h/mL, the clearance is 16.6 mL/min/kg, the C0 (back-extrapolated initial plasma concentration after IV dose) is 3980 ng/mL and the Vd turned out to be 0.42 L/kg. Also, the “Vss” value in data set [3] (IV bolus 1 mg/kg) is recorded as 0.416 L/kg. Besides, in data set [3] (PO 5 mg/kg), the AUC(0-t) stood at 114 ng·h/mL.
For the molecule `Cc1ccccc1C(=O)Nc1nc(NC(=O)c2ccccc2C)n(-c2ccccc2)n1` [Compound F, 2-methyl-N-[5-[(2-methylbenzoyl)amino]-1-phenyl-1,2,4-triazol-3-yl]benzamide], the half-life at 1 μM in data set [1] was determined as 9.63 h. For the same molecule, in data set [2] (setting [9]), the AUC(0-t) was 9590 ng·h/mL, the Tmax came to 1.3 h and the Cmax is 1470 ng/mL. Moreover, the bioavailability in data set [2] (male, Sprague-Dawley, plasma, IP 3 mg/kg, read-out: F systemic bioavailability) is 75%. The half-life in data set [2] (male, Sprague-Dawley, plasma, ip, 3 mg/kg, IP 3 mg/kg) was 3.2 h. In data set [2] (setting [7]), the half-life is 2.5 h. Also, the “delay of subcutaneous HCT-116 tumor growth” value in data set [4] is “effective of delaying growth”. Besides, in data set [3] (IV bolus 1 mg/kg), the AUC(0-t) turned out to be 4270 ng·h/mL, the clearance was determined as 4.03 mL/min/kg, the C0 (back-extrapolated initial plasma concentration after IV dose) was 5980 ng/mL and the Vd was determined as 0.406 L/kg.
Consider `Cc1ccccc1C(=O)Nc1nc(NC(=O)c2ccccc2)n(-c2ccccc2)n1` [Compound H], for which, in data set [2] (setting [5]), the Tmax came to 1.33 h and the Cmax is 91 ng/mL. The bioavailability in data set [2] (setting [6]) is 6.2%. The half-life in data set [2] (setting [7]) was 0.69 h. In addition, the half-life in data set [2] (setting [8]) was 1.7 h. Further, in data set [2], the “Oral Bioavilability (PO PK) F” value is listed as “F = 6%”. In data set [3] (IV bolus 1 mg/kg), the AUC(0-t) amounted to 1370 ng·h/mL, the clearance was 12.2 mL/min/kg, the C0 (back-extrapolated initial plasma concentration after IV dose) is 6740 ng/mL and the Vd worked out at 0.4 L/kg. The “Vss” value in data set [3] (IV bolus 1 mg/kg) is 0.401 L/kg. The same molecule showed an AUC(0-t) in data set [3] (PO 5 mg/kg) of 410 ng·h/mL.
Consider `Cc1ccccc1C(=O)Nc1nc(NC(=O)c2ccccc2)nn1-c1ccccc1` [Compound K, N-(5-benzamido-2-phenyl-1,2,4-triazol-3-yl)-2-methyl-benzamide], for which, in data set [2] (setting [5]), the Tmax turned out to be 0.42 h and the Cmax is 52.4 ng/mL. In data set [2] (setting [6]), the bioavailability was determined as 4%. Also, the half-life in data set [2] (setting [7]) was 0.6 h. In addition, the half-life in data set [2] (setting [8]) is 2.1 h. Moreover, the “Oral Bioavilability (PO PK) F” value in data set [2] is listed as “F = 4%”. In data set [3] (IV bolus 1 mg/kg), the AUC(0-t) worked out at 902 ng·h/mL, the clearance worked out at 18.4 mL/min/kg, the C0 (back-extrapolated initial plasma concentration after IV dose) was 2120 ng/mL and the Vd stood at 0.71 L/kg. Also, the “Vss” value in data set [3] (IV bolus 1 mg/kg) is on record as 0.707 L/kg. The same molecule returned an AUC(0-t) in data set [3] (PO 5 mg/kg) of 172 ng·h/mL.
As to `O=C(Nc1nc(Nc2ncnc3ccccc23)n(-c2ccccc2)n1)c1ccccc1` [Compound L, N-[1-phenyl-5-(quinazolin-4-ylamino)-1,2,4-triazol-3-yl]benzamide], in data set [1], the half-life at 1 μM was determined as 0.642 h.
Same read-out and setting: the same measure for `O=C(/C=C/c1ccccc1)Nc1nc(NC(=O)c2ccccc2)nn1-c1ccccn1` [Compound U1]: 0.115 h.
